Patent US20110251379A1, “COMPOUNDS USEFUL FOR TREATING NEURODEGENERATIVE DISORDERS” (Satori Pharmaceuticals, Inc., priority 2010, published 2011)
Read-outs that look alike come from different tables or passages of the source.

Test system: amyloid-beta (1-42) peptide
Assay: ELISA assay of amyloid-beta (1-42) in conditioned media of 2B7 cells
Type: cell-based
Conditions: for IC50: Aβ-42, 2B7 cells, 5 hours, read-out: IC50 range; for inhibition at 100 µM / inhibition at 20 µM / inhibition at 10 µM: read-out: % Inhibition (range); for inhibition at 10 µM: Aβ-42, 10 umol/L
Procedure: Compounds of the present invention, and extracts comprising said compounds, may be assayed as inhibitors of amyloid-beta (1-42) peptide in vitro or in vivo. Such assay methods are described in detail in U.S. Pat. No. 6,649,196, the entirety of which is hereby incorporated herein by reference.
In certain embodiments, provided compounds of the present invention, and extracts comprising said compounds, were assayed as inhibitors of amyloid-beta (1-42) peptide in vitro using an ELISA assay.
Capture Plate Prep: • 6E10 was diluted to 5.0 ug/mL in 100 mM NaHCO3 pH 8.2 (10 ug aliquot per 2 mL buffer); • 100 uL capture antibody solution was added to wells of 96 well plate; • Incubated overnight at 4° C. sealed; • Aspirated off capture antibody; and • Blocked with 250 uL of Blocking Buffer for 2-4 hours at rt sealed.
Conditioned Media: • Cultured 2B7 cells in 96 well plate with 250 uL of media per well until confluent; • Prepared serial dilution of compounds in DMSO at 100× the final desired concentration; • Washed wells with 2B7 cells lx with 250 uL of media; • Diluted DMSO stocks 1:100 into media and mix; and • Added 250 μL of media containing compounds (1% DMSO) to wells with 2B7 cells for 5 hours at 37° C.
Elisa Sample Prep: • Diluted conditioned media 1:2 into blocking buffer; • NOTE: If assaying for A-Beta 1-40 or total A-Beta, then diluted above sample 1:10 with a 50/50 mixture of non-conditioned media containing 1% DMSO and blocking buffer.
Standard Curve Sample Prep: • Diluted appropriate A-Beta peptide stock (stored in 1% NH4OH) to 200 μg/mL in blocking buffer; • Prepared a 1:2 serial dilution from the 200 μg/mL sample (150 μL into 150 μL blocking buffer); and • Added equal volume of standard curve samples to non-conditioned media with 1% DMSO.
Overnight Sample Incubation: • Aspirated blocking buffer from blocked plate; • Added 100 μL of samples to wells of plate (samples will be 50% media with 1% DMSO and 50% blocking buffer; and • Incubated overnight at 4° C. sealed.
Addition of Detection Antibody: • Aspirated off samples, wash 2× with 250 μL blocking buffer; and • Added 100 μL detection antibody labeled with HRP at 0.25 ug/mL in blocking buffer for 4 hours at room temperature sealed.
Final Wash and Readout: • Aspirated wells, wash 5× with 250 μL of PBS-T (2 minutes each wash at 30 RPM); • Added 100 μL TMB for 20 minutes; • Added 100 μL of 1M H3PO4; and • Read at 450 nm.
Coating Buffer (100 mM NaHCO3 pH 8.2)
PBS-T (PBS with 0.05% Tween-20)
Blocking Buffer (1% BSA in PBS-T)

Row | Compound | IC50 (5 h) [µM] | IC50 [µM] | other results
1 | C[C@@H]1C[C@H]([C@@H]2OC(=O)OC2(C)C)OC2C(O)[C@@]3(C)[C@@H]4CC[C@H]5C(C)(C)[C@@H](O[C@@H]6OC[C@@H](O)[C@H](O)[C@H]6O)CC[C@@]56C[C@@]46CC[C@]3(C)C21 (some centres unmarked) | 1 to 10 | – | –
2 | CC(=O)OC(C1CC(C)C2C(O1)C(O)C1(C)C3CCC4C(C)(C)C(OC(=O)C5CCN5)CCC45CC35CCC21C)C(C)(C)O (centres unmarked) | – | ≤ 1 | –
3 | CC1CC(CNS(C)(=O)=O)OC2C1C1(C)CCC34CC35CCC(O)C(C)(C)C5CCC4C1(C)C2O (centres unmarked) | – | > 10 | –
4 | CC(=O)O[C@@H]([C@H]1C[C@@H](C)[C@H]2[C@H](O1)[C@H](O)[C@@]1(C)[C@@H]3CC[C@H]4C(C)(C)[C@@H](O[C@H]5CN(C6COC6)CCO5)CC[C@@]45C[C@@]35CC[C@]21C)C(C)(C)O | ≤ 1 | – | –
5 | CCCN1CCO[C@@H](O[C@H]2CC[C@]34C[C@]35CC[C@]3(C)[C@@H]6[C@H](O[C@@H]([C@H](OC(C)=O)C(C)(C)O)C[C@H]6C)[C@H](O)[C@@]3(C)[C@@H]5CC[C@H]4C2(C)C)C1 | 1 to 10 | – | –
6 | CC1CC(C(OC(=O)C(C)(C)C)C(C)(C)O)OC2C1C1(C)CCC34CC35CCC(O)C(C)(C)C5CCC4C1(C)C2O (centres unmarked) | – | > 1 | –
7 | CC(=O)O[C@@H]([C@H]1C[C@@H](C)C2C(O1)[C@H](O)[C@@]1(C)[C@@H]3CC[C@H]4C(C)(C)[C@@H](OC(=O)CCC(=O)O)CC[C@@]45C[C@@]35CC[C@]21C)C(C)(C)O (some centres unmarked) | 1 to 10 | – | –
8 | C[C@@H]1C[C@H](C(=O)C(C)(C)O)OC2C1[C@@]1(C)CC[C@@]34C[C@@]35CC[C@H](O[C@@H]3OC[C@@H](O)[C@H](O)[C@H]3O)C(C)(C)[C@@H]5CC[C@H]4[C@]1(C)[C@H]2O (some centres unmarked) | > 10 | – | –
9 | C[C@@H]1C[C@H]([C@@H]2OC(=O)OC2(C)C)OC2C1[C@@]1(C)CC[C@@]34C[C@@]35CC[C@H](O)C(C)(C)[C@@H]5CC[C@H]4[C@]1(C)[C@H]2O (some centres unmarked) | – | – | inhibition at 100 µM (Aβ-42, 100 umol/L): 25 to 75%
10 | CC(=O)/C=C/[C@H]1C[C@@H](C)C2C(O1)[C@H](O)[C@@]1(C)[C@@H]3CC[C@H]4C(C)(C)[C@@H](O)CC[C@@]45C[C@@]35CC[C@]21C (some centres unmarked) | – | – | inhibition at 20 µM (Aβ-42, 20 umol/L): < 25%
11 | CC1CC(CN(CC2CC2)S(C)(=O)=O)OC2C1C1(C)CCC34CC35CCC(O)C(C)(C)C5CCC4C1(C)C2O (centres unmarked) | – | > 10 | –
12 | CC(=O)N(Cc1cc(F)cc(F)c1)CC1CC(C)C2C(O1)C(O)C1(C)C3CCC4C(C)(C)C(OC(=O)CN5CCOCC5)CCC45CC35CCC21C (centres unmarked) | – | > 10 | –
13 | CC1CC(CN2CCCCC2=O)OC2C1C1(C)CCC34CC35CCC(O)C(C)(C)C5CCC4C1(C)C2O (centres unmarked) | – | > 10 | –
14 | CC(=O)O[C@@H]([C@H]1C[C@@H](C)C2C(O1)[C@H](O)[C@@]1(C)[C@@H]3CC[C@H]4C(C)(C)[C@@H](OCC(=O)O)CC[C@@]45C[C@@]35CC[C@]21C)C(C)(C)O (some centres unmarked) | 1 to 10 | – | –
15 | CC(=O)O[C@@H]([C@H]1C[C@@H](C)[C@H]2[C@H](O1)[C@H](O)[C@@]1(C)[C@@H]3CC[C@H]4C(C)(C)C(OC(=O)c5ccncc5)CC[C@@]45C[C@@]35CC[C@]21C)C(C)(C)O (some centres unmarked) | ≤ 1 | – | –
16 | CC1CC(C(O)C(C)(C)O)OC2C1C1(C)CCC34CC35CCC(OC3CN(C(=O)Cc6cccnc6)CCO3)C(C)(C)C5CCC4C1(C)C2O (centres unmarked) | – | – | % Inhibition (range) (Aβ-42, 100 umol/L): F (% inhibition of <25%)
17 | CCN1CCO[C@@H](O[C@H]2CC[C@]34C[C@]35CC[C@]3(C)[C@@H]6[C@H](O[C@@H]([C@H](OC(C)=O)C(C)(C)O)C[C@H]6C)[C@H](O)[C@@]3(C)[C@@H]5CC[C@H]4C2(C)C)C1 | ≤ 1 | – | –
18 | CC(=O)O[C@@H]([C@H]1C[C@@H](C)[C@H]2[C@H](O1)[C@H](O)[C@@]1(C)[C@@H]3CC[C@H]4C(C)(C)[C@@H](OS(C)(=O)=O)CC[C@@]45C[C@@]35CC[C@]21C)C(C)(C)O | > 10 | – | –
19 | CC(=O)O[C@@H]([C@H]1C[C@@H](C)C2=C(O1)[C@H](O)[C@@]1(C)[C@@H]3CC[C@H]4C(C)(C)[C@@H](O)CC[C@@]45C[C@@]35CC[C@]21C)C(C)(C)O | < 10 | – | inhibition at 10 µM: > 75%
20 | CC1CC(C(O)C(C)(C)O)OC2C1C1(C)CCC34CC35CCC(OC3CN(C6CCOC6)CCO3)C(C)(C)C5CCC4C1(C)C2O (single isomer, unassigned) [drawing 1106] | – | – | % Inhibition (range) (Aβ-42, 20 umol/L): E (% inhibition of 25-75%)

Row | Compound | IC50 (5 h) [µM] | IC50 [µM] | other results
21 | CC1CC(CN(Cc2ccccc2)C(=O)N(C)C)OC2C1C1(C)CCC34CC35CCC(O)C(C)(C)C5CCC4C1(C)C2O (centres unmarked) | – | > 10 | –
22 | CC(=O)N(Cc1cc(F)cc(F)c1)CC1CC(C)C2C(O1)C(O)C1(C)C3CCC4C(C)(C)C(OC(=O)C5CN(C(=O)OC(C)(C)C)C5)CCC45CC35CCC21C (centres unmarked) | – | > 10 | –
23 | CC(=O)CCC1C[C@@H](C)C2C(O1)[C@H](O)[C@@]1(C)[C@@H]3CC[C@H]4C(C)(C)[C@@H](O)CC[C@@]45C[C@@]35CC[C@]21C (some centres unmarked) | – | – | inhibition at 20 µM (Aβ-42, 20 umol/L): < 25%
24 | CC1CC(CN(C)C(=O)C(C)(C)C)OC2C1C1(C)CCC34CC35CCC(O)C(C)(C)C5CCC4C1(C)C2O (centres unmarked) | – | > 10 | –
25 | CC1CC(C(O)C(C)(C)O)OC2C1C1(C)CCC34CC35CCC(OC3CN(C(=O)Cc6ccncc6)CCO3)C(C)(C)C5CCC4C1(C)C2O (centres unmarked) | – | – | % Inhibition (range) (Aβ-42, 100 umol/L): F (% inhibition of <25%)
26 | CC1CC(C(O)C(C)(C)O)OC2C1C1(C)CCC34CC35CCC(OC3CN(C(=O)c6cc(F)cc(F)c6)CCO3)C(C)(C)C5CCC4C1(C)C2O (centres unmarked) | – | – | % Inhibition (range) (Aβ-42, 20 umol/L): E E (% inhibition of 25-75%); % Inhibition (range) (Aβ-42, 100 umol/L): E E (% inhibition of 25-75%)
27 | CC(=O)O[C@@H]([C@H]1C[C@@H](C)[C@H]2[C@H](O1)[C@H](O)[C@@]1(C)[C@@H]3CC[C@H]4C(C)(C)[C@@H](O[C@H]5CN(CCOCCOCCNC(=O)CCCC[C@@H]6SC[C@@H]7NC(=O)N[C@@H]76)CCO5)CC[C@@]45C[C@@]35CC[C@]21C)C(C)(C)O | ≤ 1 | – | –
28 | CC(=O)O[C@@H]([C@H]1C[C@@H](C)C2C(O1)[C@H](O)[C@@]1(C)[C@@H]3CC[C@H]4C(C)(C)C(=O)CC[C@@]45C[C@@]35CC[C@]21C)C(C)(C)O (some centres unmarked) | – | – | inhibition at 100 µM (Aβ-42, 100 umol/L): 25 to 75%
29 | CC(=O)OC(C1CC(C)C2C(O1)C(O)C1(C)C3CCC4C(C)(C)C(OC5CN(S(C)(=O)=O)CCO5)CCC45CC35CCC21C)C(C)(C)O (centres unmarked) [drawing 785] | – | ≤ 1 | –
30 | CC(=O)O[C@@H]([C@H]1C[C@@H](C)[C@H]2[C@H](O1)/C(=N/O)[C@H]1C3CCC4C(C)(C)[C@@H](OC5OC[C@@H](O)[C@H](O)[C@H]5O)CC[C@@]45C[C@@]35CC[C@]21C)C(C)(C)O (some centres unmarked) | ≤ 1 | – | –
31 | CC(=O)O[C@@H]([C@H]1C[C@@H](C)C2=C(O1)[C@H](O)[C@@]1(C)[C@@H]3CC[C@H]4C(C)(C)[C@@H](O[C@@H]5OC[C@@H](O)[C@H](O)[C@H]5O)CC[C@@]45C[C@@]35CC[C@]21C)C(C)(C)O | ≤ 1 | – | –
32 | CC(=O)N(Cc1cc(F)cc(F)c1)CC1CC(C)C2C(O1)C(O)C1(C)C3CCC4C(C)(C)C(O)CCC45CC35CCC21C (centres unmarked) [drawing 839] | – | ≤ 1 | –
33 | CC(=O)N(CC1CC(C)C2C(O1)C(O)C1(C)C3CCC4C(C)(C)C(O)CCC45CC35CCC21C)C(C)c1ccc(F)cc1 (centres unmarked) | – | 1 to 10 | –
34 | CO[C@@H]([C@H]1C[C@@H](C)C2C(O1)[C@H](O)[C@@]1(C)[C@@H]3CC[C@H]4C(C)(C)[C@@H](O[C@@H]5OC[C@@H](O)[C@H](O)[C@H]5O)CC[C@@]45C[C@@]35CC[C@]21C)C(C)(C)O (some centres unmarked) | 1 to 10 | – | –
35 | CC(=O)N(Cc1ccc(F)cc1)CC1CC(C)C2C(O1)C(O)C1(C)C3CCC4C(C)(C)C(O)CCC45CC35CCC21C (centres unmarked) | – | 1 to 10 | –
36 | CC1CC(C(O)C(C)(C)O)OC2C1C1(C)CCC34CC35CCC(OC3CN(C(=O)Cc6ccccn6)CCO3)C(C)(C)C5CCC4C1(C)C2O (centres unmarked) | – | – | % Inhibition (range) (Aβ-42, 100 umol/L): F (% inhibition of <25%)
37 | CC(=O)O[C@@H]([C@H]1C[C@@H](C)[C@H]2[C@H](O1)C(=O)[C@@]1(C)[C@@H]3CC[C@H]4C(C)(C)[C@@H](O[C@H]5CN(CC(N)=O)CCO5)CC[C@@]45C[C@@]35CC[C@]21C)C(C)(C)O [drawing 969] | ≤ 1 | – | –
38 | C[C@@H]1C[C@H]([C@H](O)C(C)(C)O)OC2C(=O)[C@@]3(C)[C@@H]4CC[C@H]5C(C)(C)[C@@H](O[C@@H]6OC[C@@H](O)[C@H](O)[C@H]6O)CC[C@@]56C[C@@]46CC[C@]3(C)C21 (some centres unmarked) | > 10 | – | –
39 | CC(=O)O[C@H]1CC[C@]23C[C@]24CC[C@]2(C)C5C(C[C@@]2(C)C4CCC3C1(C)C)OC(O)(C(F)(F)F)C[C@H]5C (some centres unmarked) | – | – | inhibition at 10 µM: < 25%
